In one assay the test system is L6. The assay can be described thus: Cytotoxicity against rat L6 cells. It counts as cell-based.
Assay [1] has as its system BALB/3T3. Kind of assay: Ratio of IC50 for mouse BALB/3T3 cells to IC50 for human A549 cells.
In assay [2] the test system is A549. The assay can be described thus: Cytotoxicity against human A549 cells after 72 hrs by SRB assay. The note with it: A549, 72 h. For orientation: Sulforhodamine B stains cellular protein and so reports cell mass.
Another assay has as its system MV4-11. Kind of assay: Cytotoxicity against human MV4-11 cells after 72 hrs by MTT assay. The note with it: MV4-11, 72 h.
For the next assay, the system named is HCT-116. Kind of assay: Cytotoxicity against human HCT116 cells after 72 hrs by SRB assay. The note with it: HCT-116, 72 h.
The test system of assay [3] is BALB/3T3. Kind of assay: Cytotoxicity against mouse BALB/3T3 cells after 72 hrs by SRB assay. The note with it: BALB/3T3, 72 h.
Assay [4] deals with A549. The assay can be described thus: Ratio of IC50 for human A549 cells to IC50 for human HCT116 cells. It counts as functional.
Assay [5] relates to BALB/3T3. Kind of assay: Ratio of IC50 for mouse BALB/3T3 cells to IC50 for human HCT116 cells.

Where only a bound is given, the exact number is not on record here.

For orientation: IC50 means the concentration at which inhibition is half-maximal.

In the assay with L6, `COc1ccc2oc3nc4ccccc4c-3c(NCCCNC(=O)Nc3ccccc3)c2c1` yielded an IC50 of 169 µM.

The compound `COc1ccc2c(c1)c(NCCCNC(=O)Nc1ccccc1)c1c3ccccc3nc-1n2C` showed an IC50 with L6 of 2.7 µM.

`NCCCNc1c2c3ccccc3nc-2oc2ccccc12`: the “Ratio IC50” value with BALB/3T3 [1] was found to be 2. The IC50 with A549 [2] was 4.26 µM; in the assay with MV4-11, 1.02 µM; in the assay with HCT-116 it was 5.7 µM; with BALB/3T3 [3], 13.4 µM.

Consider `NCCCCNc1c2c3ccccc3nc-2oc2ccccc12`, for which the IC50 in the assay on A549 [2] stood at 3.9 µM; with MV4-11, 0.76 µM; in the assay with HCT-116, 7.2 µM; in the assay with BALB/3T3 [3], 12.1 µM.

With `OCCCNc1c2c3ccccc3nc-2oc2ccccc12`, the IC50 in the assay on MV4-11 was found to be 7.66 µM.

For `CCN(CC)CCCC(C)Nc1c2c3ccccc3nc-2oc2ccccc12` (configuration not stated), in the assay with MV4-11, 6.02 µM corresponded to half-maximal inhibition (IC50).

With `c1ccc2c3c(N4CCOCC4)c4ccccc4oc-3nc2c1`, the midpoint of inhibition with MV4-11, the IC50, lay at 9.2 µM.

For `NCCCNc1c2c3ccccc3nc-2oc2ccc(Cl)cc12`, the “Ratio IC50” value with BALB/3T3 [1] came out at 2. The IC50 with A549 [2] was determined as 5.59 µM; in the assay on MV4-11 it was 0.86 µM; in the assay on HCT-116, 3.28 µM; in the assay on BALB/3T3 [3], 10.1 µM.

As for `NCCCCNc1c2c3ccccc3nc-2oc2ccc(Cl)cc12`, the “Ratio IC50” value in the assay on A549 [4] worked out at 3; with BALB/3T3 [1], 2. The IC50 came to 5.56 µM in the assay on A549 [2], 0.76 µM in the assay with MV4-11, 2.03 µM in the assay on HCT-116 and 11 µM with BALB/3T3 [3].

As for `OCCCNc1c2c3ccccc3nc-2oc2ccc(Cl)cc12`, the IC50 in the assay with MV4-11 is > 30.6 µM.

On to `CCN(CC)CCCC(C)Nc1c2c3ccccc3nc-2oc2ccc(Cl)cc12` (configuration not stated), for which, in the assay on MV4-11, half-maximal inhibition (IC50) required 7 µM.

As for `Clc1ccc2oc3nc4ccccc4c-3c(N3CCOCC3)c2c1`, the IC50 in the assay with MV4-11 is > 29.5 µM.

The compound `Clc1ccc2oc3nc4ccccc4c-3c(NCCc3c[nH]c4ccccc34)c2c1` had an IC50 in the assay with MV4-11 of 7.57 µM.

In the case of `C=CCNc1c2c3ccccc3nc-2oc2ccc(Cl)cc12`, in the assay with MV4-11, the IC50 is > 32.4 µM.

With `CN1CCCN(c2c3c4ccccc4nc-3oc3ccc(Cl)cc23)CC1`, the IC50 in the assay with A549 [2] stood at 10.8 µM; with MV4-11, 0.63 µM; with HCT-116, 9.68 µM; with BALB/3T3 [3], 16.8 µM.

For `NCCCNc1c2c3ccccc3nc-2oc2ccc(Br)cc12`, the IC50 in the assay with A549 [2] is 6.19 µM; with MV4-11, 0.97 µM; in the assay with HCT-116, 4.19 µM; with BALB/3T3 [3] it was 8.94 µM.

With `NCCCCNc1c2c3ccccc3nc-2oc2ccc(Br)cc12`, the IC50 with A549 [2] was determined as 7.36 µM; with MV4-11, 0.72 µM; with HCT-116, 6.74 µM; with BALB/3T3 [3] it was 9.55 µM.

Regarding `OCCCNc1c2c3ccccc3nc-2oc2ccc(Br)cc12`, the IC50 in the assay on MV4-11 was > 26.9 µM.

Compound `CCN(CC)CCCC(C)Nc1c2c3ccccc3nc-2oc2ccc(Br)cc12` (configuration not stated) registered an IC50 in the assay with MV4-11 of 4.93 µM.

The compound `Brc1ccc2oc3nc4ccccc4c-3c(N3CCOCC3)c2c1` came in with an IC50 in the assay on MV4-11 of 25.3 µM.

With `COc1ccc2oc3nc4ccccc4c-3c(NCCCN)c2c1`, the “Ratio IC50” value with A549 [4] and in the assay with BALB/3T3 [5] was 5 throughout. Besides, the IC50 in the assay with A549 [2] worked out at 9.29 µM; in the assay on MV4-11, 0.12 µM; with HCT-116 it was 1.93 µM; in the assay with BALB/3T3 [3], 6.87 µM.

In the assay with MV4-11, `COc1ccc2oc3nc4ccccc4c-3c(NCCCO)c2c1` displayed an IC50 of 7.26 µM.

Turning to `CCN(CC)CCCC(C)Nc1c2c3ccccc3nc-2oc2ccc(OC)cc12` (configuration not stated), the IC50 in the assay with MV4-11 turned out to be 3.45 µM.

On to `COc1ccc2oc3nc4ccccc4c-3c(N3CCOCC3)c2c1`, for which the “Ratio IC50” value with A549 [4] and with BALB/3T3 [5] was 5 throughout. Besides, the IC50 with A549 [2] is 10.6 µM; with MV4-11 it was 0.38 µM; in the assay with HCT-116, 1.7 µM; with BALB/3T3 [3], 8.73 µM.

In turn, `COc1ccc2oc3nc4ccccc4c-3c(NCCc3c[nH]c4ccccc34)c2c1` showed an IC50 in the assay on MV4-11 of 3.04 µM.

Consider `COc1ccc2oc3nc4ccccc4c-3c(Nc3ccccc3)c2c1`, for which inhibition in the assay on MV4-11 was half-maximal at 4.35 µM (IC50).

Consider `CS(=O)(=O)NCCCNc1c2c3ccccc3nc-2oc2ccccc12`, for which, in the assay on MV4-11, the IC50 was determined as 7.74 µM.

With `O=S(=O)(NCCCNc1c2c3ccccc3nc-2oc2ccccc12)c1ccccc1`, in the assay with MV4-11, the IC50 is > 23.2 µM.

Take `O=S(=O)(NCCCNc1c2c3ccccc3nc-2oc2ccccc12)c1ccc2ccccc2c1`: in the assay on MV4-11, inhibition was half-maximal at 2.41 µM (IC50).

In the assay on MV4-11, `CS(=O)(=O)NCCCNc1c2c3ccccc3nc-2oc2ccc(Br)cc12` gave an IC50 of 6.22 µM.

As for `O=S(=O)(NCCCNc1c2c3ccccc3nc-2oc2ccc(Br)cc12)c1ccccc1`, the IC50 with MV4-11 is > 19.6 µM.

On to `O=S(=O)(NCCCNc1c2c3ccccc3nc-2oc2ccc(Br)cc12)c1ccc2ccccc2c1`, for which, in the assay with MV4-11, the IC50 stood at 5.75 µM.
